Measured values reported in patent US20130022635A1, “Expression Modulator For Clock Gene Bmal” (SHISEIDO COMPANY, LTD., priority 2010, published 2013).

Legend:
[1] = system: Period1 gene; test: Period1 gene expression in cultured skin fibroblastic cells; type: cell-based, human
Method: As the cultured human fibroblastic cells, fibroblastic cells from normal human skin were purchased (Cell Application, Inc.) and used in the experiments. They were inoculated in DMEM medium supplemented with 10% FBS, 20 mM HEPES, Glutamax and antibacterial agents and cultured at 37° C. in 5% CO2. On the 6th day of culture, 50 ng/mL of cortisol or 10 μM of forskolin was added, and the samples were harvested at various times after time 0, which was defined as the time immediately after the addition of cortisol or forskolin. RNA was extracted from the cells with a commercially available RNA extraction kit, and the amounts of expression of the intended genes were measured by RT-PCR technology using commercially available PCR primers (Perfect Real Time Primer, Takara Bio). As for clock genes, amounts of expression of Period (represented by Period1) and Bmal1, which are involved in the core system, were determined. Similarly, the amounts of expression of a housekeeping gene RPLP0 were quantified and used as an internal standard to calculate the relative expression of the intended genes to RPLP0. […]

[2] = system: Bmal1 gene; test: Bmal1 gene expression (RT-PCR, relative to RPLP0) in cultured human skin fibroblastic cells; type: cell-based; details: expression at 2 and 16 hours after stimulation
Method: As the cultured human fibroblastic cells, fibroblastic cells from normal human skin were purchased (Cell Application, Inc.) and used in the experiments. They were inoculated in DMEM medium supplemented with 10% FBS, 20 mM HEPES, Glutamax and antibacterial agents and cultured at 37° C. in 5% CO2. On the 6th day of culture, 50 ng/mL of cortisol or 10 μM of forskolin was added, and the samples were harvested at various times after time 0, which was defined as the time immediately after the addition of cortisol or forskolin. RNA was extracted from the cells with a commercially available RNA extraction kit, and the amounts of expression of the intended genes were measured by RT-PCR technology using commercially available PCR primers (Perfect Real Time Primer, Takara Bio). As for clock genes, amounts of expression of Period (represented by Period1) and Bmal1, which are involved in the core system, were determined. Similarly, the amounts of expression of a housekeeping gene RPLP0 were quantified and used as an internal standard to calculate the relative expression of the intended genes to RPLP0. […] Test substances were evaluated for the expression modulating effect on a Bmal gene based on the amount of gene expression at 16 hours after stimulation. […]

SMILES | Induction of Period gene expression rhythm or promotion of its expression (in words) [1] | Induction of Bmal1 expression rhythm and increase of Bmal1 gene expression (in words) [2]
C=C1CC/C=C(\C)CC[C@@H]2[C@@H]1CC2(C)C [beta-Caryophyllene] | can induce expression rhythm of a Period gene or promote its expression | 
C[C@]12CCC(=O)C=C1CC[C@@H]1[C@@H]2[C@@H](O)C[C@@]2(C)[C@H]1CC[C@]2(O)C(=O)CO [cortisol] |  | significantly increase amounts of gene expression of Bmal1
